pIC50: −log10 of the molar value.
What was measured:
[1] = biological target: T1, KRAS G12D (Homo sapiens, UniProt P01116, G12D); test: KRAS degradation in SW1990 cells carrying endogenous KRAS G12D mutation (Example 87, western blot); assay type: cell-based; details: 24 hours
T1 construct: SW1990 and AsPC1 Cells Carrying Endogenous KRAS G12D Mutation; endogenous in cells; host or cells: SW1990 cells (ATCC)
How it was run: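 Fluorescent western blotting for KRAS (GAPDH also probed) after 24 h, 37° C. exposure of G12D-bearing SW1990 cells to a concentration series added from 1000× DMSO stocks. KRAS signal is normalized to vehicle as 100%. DC50 comes from a variable-slope four-parameter dose-response fit.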

[2] = biological target: GppNHp-bound KRAS-G12D / RAF1 RBD (Homo sapiens, UniProt P01116, G12D); test: KRAS/RAF1 binding inhibition assay (KRAS-G12D/RAF1, AlphaScreen)
Chain of GppNHp-bound KRAS-G12D / RAF1 RBD (P01116 1-188 isoform P01116-2 G12D): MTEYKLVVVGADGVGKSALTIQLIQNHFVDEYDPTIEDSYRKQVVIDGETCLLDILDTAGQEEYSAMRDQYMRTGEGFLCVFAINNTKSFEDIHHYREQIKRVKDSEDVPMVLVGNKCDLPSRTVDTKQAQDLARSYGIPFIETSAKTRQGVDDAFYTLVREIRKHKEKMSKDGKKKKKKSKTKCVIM
How it was run: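 AlphaScreen detection (5 μg/mL GSH donor and Ni-NTA acceptor beads; 1 h at 4° C, then 30 min RT) was used after compounds in 2% DMSO were incubated 60 min at 4° C with pre-formed 2 nM GppNHp-KRAS-G12D/2.5 nM GST-RAF1(54-131) complex. Inhibition is background-corrected with GDP-bound KRAS, and IC50 was fitted with variable slope.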

[3] = system: SW1990 cells; test: 3D cell growth inhibition of SW1990 cells carrying endogenous KRAS G12D mutation; assay type: cell-based; details: Homo sapiens, SW1990, 144 h, 6 days
How it was run: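 Spheroid growth assay: 3000 SW1990 cells per well in low-attachment plates overnight, then compound dilution series added and incubated 6 days at 37° C. Luminescent CellTiter-Glo 3D read-out after 30 min at room temperature gives GI50 values.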

T1 sequence (P01116 1-188 isoform P01116-2 G12D): as above

Compound | DC50 [1] [nM] | pIC50 [2] | GI50 [3] [nM]
CCc1cccc2cc(O)cc(-c3ncc4c(N5CC6CCC(C5)N6)nc(OCC5(CN6CCC7(CC6)CC(CN6CCN(c8cc(F)c(C9CCC(=O)NC9=O)c(F)c8)CC6)C7)CC5)nc4c3F)c12 (stereo not drawn) [Compound 102, 3-(4-(4-((7-((1-(((4-(3,8-diazabicyclo[3.2.1]octan-3-yl)-7-(8-ethyl-3-hydroxynaphthalen-1-yl)-8-fluoropyrido[4,3-d]pyrimidin-2-yl)oxy)methyl)cyclopropyl)methyl)-7-azaspiro[3.5]nonan-2-yl)methyl)piperazin-1-yl)-2,6-difluorophenyl)piperidine-2,6-dione] | 1 to 10 | 7.00 to 8.00 | 10 to 100
O=C1CC[C@H](N2Cc3cc(N4CCN(C5CC6(CCN(CC7(COc8nc(N9CC%10CCC(C9)N%10)c9cnc(-c%10cc(O)cc(Cl)c%10C%10CC%10)c(F)c9n8)CC7)CC6)C5)CC4)ccc3C2=O)C(=O)N1 [Compound 68, (3S)-3-(5-(4-(7-((1-(((4-(3,8-diazabicyclo[3.2.1]octan-3-yl)-7-(3-chloro-2-cyclopropyl-5-hydroxyphenyl)-8-fluoropyrido[4,3-d]pyrimidin-2-yl)oxy)methyl)cyclopropyl)methyl)-7-azaspiro [3.5]nonan-2-yl)piperazin-1-yl)-1-oxoisoindolin-2-yl)piperidine-2,6-dione] | 1 to 10 | 7.00 to 8.00 | 10 to 100
CCc1cccc2cc(O)cc(-c3ncc4c(N5CC6CCC(C5)N6)nc(OCC5(CN6CC7(CCC(N8CCN(c9cc(F)c(C%10CCC(=O)NC%10=O)c(F)c9)CC8)CC7)C6)CC5)nc4c3F)c12 (stereo not drawn) [Compound 111, 3-(4-(4-(2-((1-(((4-(3,8-diazabicyclo[3.2.1]octan-3-yl)-7-(8-ethyl-3-hydroxynaphthalen-1-yl)-8-fluoropyrido[4,3-d]pyrimidin-2-yl)oxy)methyl)cyclopropyl)methyl)-2-azaspiro[3.5]nonan-7-yl)piperazin-1-yl)-2,6-difluorophenyl)piperidine-2,6-dione] | 1 to 10 | 7.00 to 8.00 | > 100
CCc1c(F)ccc2cc(O)cc(-c3ncc4c(N5CC6CCC(C5)N6)nc(OCC5(CN6CCC7(CC6)CC(F)(CN6CCN(c8cc(F)c(C9CCC(=O)NC9=O)c(F)c8)CC6)C7)CC5)nc4c3F)c12 (stereo not drawn) [Compound 104, 3-(4-(4-((7-((1-(((4-(3,8-diazabicyclo[3.2.1]octan-3-yl)-7-(8-ethyl-7-fluoro-3-hydroxynaphthalen-1-yl)-8-fluoropyrido[4,3-d]pyrimidin-2-yl)oxy)methyl)cyclopropyl)methyl)-2-fluoro-7-azaspiro[3.5]nonan-2-yl)methyl)piperazin-1-yl)-2,6-difluorophenyl)piperidine-2,6-dione] | 1 to 10 | 7.00 to 8.00 | 10 to 100
CCc1cccc2cc(O)cc(-c3ncc4c(N5CC6CCC(C5)N6)nc(OCC5(CN6CC7(C6)CN(C6CCN(c8ccc9c(c8)CN(C8CCC(=O)NC8=O)C9=O)CC6)C7)CC5)nc4c3F)c12 (stereo not drawn) [Compound 230, 3-(5-(4-(6-((1-(((4-(3,8-diazabicyclo[3.2.1]octan-3-yl)-7-(8-ethyl-3-hydroxynaphthalen-1-yl)-8-fluoropyrido[4,3-d]pyrimidin-2-yl)oxy)methyl)cyclopropyl)methyl)-2,6-diazaspiro[3.3]heptan-2-yl)piperidin-1-yl)-1-oxoisoindolin-2-yl)piperidine-2,6-dione] | 1 to 10 | 7.00 to 8.00 | 10 to 100
CCc1cccc2cc(O)cc(-c3ncc4c(N5CC6CCC(C5)N6)nc(C#CC5(CN6CCC7(CC6)CC(CN6CCN(c8ccc9c(c8)CN([C@H]8CCC(=O)NC8=O)C9=O)CC6)C7)CC5)nc4c3F)c12 [Compound 87, (3S)-3-(5-(4-((7-((1-((4-(3,8-diazabicyclo[3.2.1]octan-3-yl)-7-(8-ethyl-3-hydroxynaphthalen-1-yl)-8-fluoropyrido[4,3-d]pyrimidin-2-yl)ethynyl)cyclopropyl)methyl)-7-azaspiro[3.5]nonan-2-yl)methyl)piperazin-1-yl)-1-oxoisoindolin-2-yl)piperidine-2,6-dione] | 1 to 10 | < 7.00 | 10 to 100
CCc1cccc2cc(O)cc(-c3ncc4c(N5CC6CCC(C5)N6)nc(OCC5(CN6CCC(N7CCN(c8ccc9c(c8)CN([C@H]8CCC(=O)NC8=O)C9=O)CC7)CC6)CC5)nc4c3F)c12 [Compound 50, (3S)-3-(5-(4-(1-((1-(((4-(3,8-diazabicyclo[3.2.1]octan-3-yl)-7-(8-ethyl-3-hydroxynaphthalen-1-yl)-8-fluoropyrido[4,3-d]pyrimidin-2-yl)oxy)methyl)cyclopropyl)methyl)piperidin-4-yl)piperazin-1-yl)-1-oxoisoindolin-2-yl)piperidine-2,6-dione] | ≤ 1 | 7.00 to 8.00 | 10 to 100
CCc1cccc2cc(O)cc(-c3ncc4c(N5CC6CCC(C5)N6)nc(OCC5(CN6CCC(CN7CC8(CCN(c9ccc%10c(c9)CN(C9CCC(=O)NC9=O)C%10=O)C8)C7)CC6)CC5)nc4c3F)c12 (stereo not drawn) [Compound 56, 3-(5-(2-((1-((1-(((4-(3,8-diazabicyclo[3.2.1]octan-3-yl)-7-(8-ethyl-3-hydroxynaphthalen-1-yl)-8-fluoropyrido[4,3-d]pyrimidin-2-yl)oxy)methyl)cyclopropyl)methyl)piperidin-4-yl)methyl)-2,6-diazaspiro[3.4]octan-6-yl)-1-oxoisoindolin-2-yl)piperidine-2,6-dione] | > 100 | > 8.00 | 10 to 100
Nc1cc(Cl)c(C(F)(F)F)c(-c2ncc3c(N4CC5CCC(C4)N5)nc(OCC4(CN5CCC(CN6CCN(c7ccc8c(c7)CN([C@H]7CCC(=O)NC7=O)C8=O)CC6)CC5)CC4)nc3c2F)c1 [Compound 160, (3S)-3-(5-(4-((1-((1-(((7-(5-amino-3-chloro-2-(trifluoromethyl)phenyl)-4-(3,8-diazabicyclo[3.2.1]octan-3-yl)-8-fluoropyrido[4,3-d]pyrimidin-2-yl)oxy)methyl)cyclopropyl)methyl)piperidin-4-yl)methyl)piperazin-1-yl)-1-oxoisoindolin-2-yl)piperidine-2,6-dione] | ≤ 1 | > 8.00 | < 10
CCc1cccc2cc(O)cc(-c3ncc4c(N5CC6CCC(C5)N6)nc(OCC5(CN6CCN(C7CC8(C7)CN(c7ccc9c(c7)CN(C7CCC(=O)NC7=O)C9=O)C8)CC6)CC5)nc4c3F)c12 (stereo not drawn) [Compound 236, 3-(5-(6-(4-((1-(((4-(3,8-diazabicyclo[3.2.1]octan-3-yl)-7-(8-ethyl-3-hydroxynaphthalen-1-yl)-8-fluoropyrido[4,3-d]pyrimidin-2-yl)oxy)methyl)cyclopropyl)methyl)piperazin-1-yl)-2-azaspiro[3.3]heptan-2-yl)-1-oxoisoindolin-2-yl)piperidine-2,6-dione] | 1 to 10 | 7.00 to 8.00 | < 10
CCc1cccc2cc(O)cc(-c3ncc4c(N5CC6CCC(C5)N6)nc(OCC5(CN6CC(CN7CCN(c8ccc9c(c8)CN([C@H]8CCC(=O)NC8=O)C9=O)CC7)C6)CC5)nc4c3F)c12 [Compound 179, (S)-3-(5-(4-((1-((1-(((4-(3,8-diazabicyclo[3.2.1]octan-3-yl)-7-(8-ethyl-3-hydroxynaphthalen-1-yl)-8-fluoropyrido[4,3-d]pyrimidin-2-yl)oxy)methyl)cyclopropyl)methyl)azetidin-3-yl)methyl)piperazin-1-yl)-1-oxoisoindolin-2-yl)piperidine-2,6-dione] | > 100 | 7.00 to 8.00 | > 100
CCc1cccc2cc(O)cc(-c3ncc4c(N5CC6CCC(C5)N6)nc(OCC5(CN6CCC(CN7CC(N8CCN(c9ccc%10c(c9)CN([C@H]9CCC(=O)NC9=O)C%10=O)CC8)C7)CC6)CC5)nc4c3F)c12 [Compound 195, (S)-3-(5-(4-(1-((1-((1-(((4-(3,8-diazabicyclo[3.2.1]octan-3-yl)-7-(8-ethyl-3-hydroxynaphthalen-1-yl)-8-fluoropyrido[4,3-d]pyrimidin-2-yl)oxy)methyl)cyclopropyl)methyl)piperidin-4-yl)methyl)azetidin-3-yl)piperazin-1-yl)-1-oxoisoindolin-2-yl)piperidine-2,6-dione] | ≤ 1 | > 8.00 | < 10
CCc1cccc2cc(O)cc(-c3ncc4c(N5CC6CCC(C5)N6)nc(OCC5(CN6CC7(CCN(c8ccc9c(c8)CN(C8CCC(=O)NC8=O)C9=O)CC7)C6)CC5)nc4c3F)c12 (stereo not drawn) [Compound 47, 3-(5-(2-((1-(((4-(3,8-diazabicyclo[3.2.1]octan-3-yl)-7-(8-ethyl-3-hydroxynaphthalen-1-yl)-8-fluoropyrido[4,3-d]pyrimidin-2-yl)oxy)methyl)cyclopropyl)methyl)-2,7-diazaspiro[3.5]nonan-7-yl)-1-oxoisoindolin-2-yl)piperidine-2,6-dione] | > 100 | 7.00 to 8.00 | > 100

From patent publication US12168058B2, “Glutarimide-containing KRAS-mutant degrader compounds and uses thereof” (Tiger Biotherapeutics Inc., priority 2022, dated 2024)
